From the supplement of paper PMC10307832

Experiments:
Assay in all cases: relative viability (nuclei count vs DMSO), 5 days (fraction); higher = more cells survive
Pemetrexed + Trametinib = compound: Nc1nc2[nH]cc(CCc3ccc(C(=O)N[C@@H](CCC(=O)O)C(=O)O)cc3)c2c(=O)[nH]1 [Pemetrexed] + CC(=O)Nc1cccc(-n2c(=O)n(C3CC3)c(=O)c3c(Nc4ccc(I)cc4F)n(C)c(=O)c(C)c32)c1 [Trametinib] (partner 0.02 µM)
Summary of the method: (§1)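 A single step with final 0.05% Triton X-100, 1% formaldehyde and 1 ug/ml Hoechst fixed the cells and stained nuclei 5 days after treatment. Lung cancer cell lines in 1536-well plates had been treated by pin tool the day after seeding with one drug alone or a fixed anchor-drug dose plus five library-drug doses (not always all listed) in √10 steps, and nuclei were counted on 4× images. Relative viability is the ratio of nuclei in treated wells to nuclei in vehicle wells, taken as the median of duplicate plates.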

Idelalisib + AZD7762 = compound: CC[C@H](Nc1ncnc2[nH]cnc12)c1nc2cccc(F)c2c(=O)n1-c1ccccc1 [Idelalisib] + NC(=O)Nc1cc(-c2cccc(F)c2)sc1C(=O)N[C@H]1CCCNC1 [AZD7762] (partner 0.2 µM)
Summary of the method: as §1

Pemetrexed + Palbociclib = compound: Nc1nc2[nH]cc(CCc3ccc(C(=O)N[C@@H](CCC(=O)O)C(=O)O)cc3)c2c(=O)[nH]1 [Pemetrexed] + CC(=O)c1c(C)c2cnc(Nc3ccc(N4CCNCC4)cn3)nc2n(C2CCCC2)c1=O [Palbociclib] (partner 0.5 µM)
Summary of the method: as §1

Pemetrexed + Lapatinib = compound: Nc1nc2[nH]cc(CCc3ccc(C(=O)N[C@@H](CCC(=O)O)C(=O)O)cc3)c2c(=O)[nH]1 [Pemetrexed] + CS(=O)(=O)CCNCc1ccc(-c2ccc3ncnc(Nc4ccc(OCc5cccc(F)c5)c(Cl)c4)c3c2)o1 [Lapatinib] (partner 2 µM)
Summary of the method: as §1

Row | Cell Line | relative viability (Pemetrexed + Trametinib; first compound 0.002 µM) | relative viability (Pemetrexed + Trametinib; first compound 0.006325 µM) | relative viability (Pemetrexed + Trametinib; first compound 0.02 µM) | relative viability (Pemetrexed + Trametinib; first compound 0.06325 µM) | relative viability (Pemetrexed + Trametinib; first compound 0.2 µM) | relative viability (Idelalisib + AZD7762; first compound 0.04 µM) | relative viability (Idelalisib + AZD7762; first compound 0.1265 µM) | relative viability (Idelalisib + AZD7762; first compound 0.4 µM) | relative viability (Idelalisib + AZD7762; first compound 1.265 µM) | relative viability (Idelalisib + AZD7762; first compound 4 µM) | relative viability (Pemetrexed + Palbociclib; first compound 0.002 µM) | relative viability (Pemetrexed + Palbociclib; first compound 0.006325 µM) | relative viability (Pemetrexed + Palbociclib; first compound 0.02 µM) | relative viability (Pemetrexed + Palbociclib; first compound 0.06325 µM) | relative viability (Pemetrexed + Palbociclib; first compound 0.2 µM) | relative viability (Pemetrexed + Lapatinib; first compound 0.002 µM) | relative viability (Pemetrexed + Lapatinib; first compound 0.006325 µM) | relative viability (Pemetrexed + Lapatinib; first compound 0.02 µM) | relative viability (Pemetrexed + Lapatinib; first compound 0.06325 µM) | relative viability (Pemetrexed + Lapatinib; first compound 0.2 µM)
1 | NCI-H1395 | 0.932 | 1 | 1.13 | 0.954 | 1.03 | 0.415 | 0.45 | 0.417 | 0.371 | 0.422 | 0.61 | 0.599 | 0.675 | 0.625 | 0.599 | 0.875 | 1.02 | 1.11 | 0.922 | 0.883
2 | NCI-H1437 | 0.362 | 0.473 | 0.424 | 0.382 | 0.285 | 1.09 | 1.03 | 1.06 | 0.863 | 1.15 | 0.214 | 0.307 | 0.303 | 0.307 | 0.329 | 0.364 | 0.777 | 0.799 | 0.463 | 0.232
3 | NCI-H1651 | 0.857 | 0.783 | 0.821 | 0.827 | 0.786 | 0.522 | 0.456 | 0.46 | 0.245 | 0.519 | 0.548 | 0.477 | 0.52 | 0.495 | 0.529 | 0.9 | 0.767 | 0.819 | 0.85 | 0.725
4 | NCI-H1666 | 0.845 | 0.826 | 0.926 | 0.873 | 0.784 | 0.821 | 0.808 | 0.878 | 0.763 | 0.851 | 0.666 | 0.647 | 0.704 | 0.674 | 0.623 | 0.678 | 0.647 | 0.566 | 0.575 | 0.394
5 | NCI-H1734 | 0.603 | 0.623 | 0.679 | 0.627 | 0.524 | 0.544 | 0.543 | 0.477 | 0.209 | 0.552 | 0.192 | 0.358 | 0.366 | 0.333 | 0.346 | 0.724 | 0.995 | 1.13 | 1.01 | 0.525
6 | NCI-H1755 | 0.737 | 0.809 | 0.775 | 0.731 | 0.732 | 0.386 | 0.437 | 0.376 | 0.31 | 0.381 | 0.488 | 0.423 | 0.478 | 0.448 | 0.412 | 0.808 | 1 | 1.03 | 1.04 | 0.894
7 | NCI-H1792 | 0.374 | 0.406 | 0.533 | 0.393 | 0.41 | 0.737 | 0.803 | 0.452 | 0.493 | 0.388 | 0.7 | 0.608 | 0.685 | 0.671 | 0.642 | 0.829 | 0.895 | 0.861 | 0.875 | 0.862
8 | NCI-H1793 | 0.411 | 0.323 | 0.381 | 0.423 | 0.424 | 0.758 | 0.449 | – | 0.14 | 0.326 | 0.306 | 0.291 | 0.326 | 0.278 | 0.295 | 0.543 | 0.769 | 0.619 | 0.704 | 0.619
9 | NCI-H1915 | 0.287 | 0.294 | 0.248 | 0.306 | 0.283 | 0.766 | 0.687 | 0.643 | 0.552 | 0.68 | 0.487 | 0.512 | 0.568 | 0.521 | 0.522 | 0.945 | 0.988 | 1.1 | 0.987 | 0.971
10 | NCI-H1944 | 0.354 | 0.449 | 0.45 | 0.407 | 0.38 | 0.554 | 0.501 | 0.457 | 0.2 | 0.61 | 0.286 | 0.304 | 0.339 | 0.312 | 0.343 | 0.866 | 0.766 | 0.846 | 0.834 | 0.839
11 | NCI-H1975 | 0.277 | 0.408 | 0.323 | 0.329 | 0.237 | 0.75 | 0.724 | 0.661 | 0.743 | 0.646 | 0.306 | 0.562 | 0.606 | 0.375 | 0.237 | – | 0.885 | 0.906 | 0.78 | 0.423
12 | NCI-H1993 | 0.457 | 0.439 | 0.551 | 0.522 | 0.549 | 0.647 | 0.839 | 0.652 | 0.714 | 0.623 | 1.1 | 0.605 | 0.635 | 0.727 | 0.554 | 0.863 | 0.887 | 0.869 | 0.754 | 0.665
13 | NCI-H2085 | 0.605 | 0.47 | 0.553 | 0.583 | 0.576 | 0.951 | 0.979 | 0.887 | 0.436 | 0.471 | 0.457 | 0.458 | 0.495 | 0.471 | 0.464 | 0.717 | 0.692 | 0.88 | 0.801 | 0.768
14 | NCI-H2087 | 0.145 | 0.173 | 0.215 | 0.212 | 0.249 | 1.34 | 1.33 | 1.32 | 1.19 | 1.32 | 0.161 | 0.221 | 0.245 | 0.217 | 0.214 | 0.965 | 0.952 | 1.21 | 0.927 | 0.644
15 | NCI-H2126 | 0.55 | 0.522 | 0.591 | 0.567 | 0.533 | 0.961 | 1.06 | 0.94 | 1.02 | 1 | 0.363 | 0.327 | 0.409 | 0.339 | 0.359 | 0.75 | 0.747 | 0.789 | 0.747 | 0.739
16 | NCI-H2170 | 0.916 | 0.915 | 0.923 | 0.955 | 0.912 | 0.859 | 0.873 | 0.819 | 0.542 | 0.737 | 0.371 | 0.396 | 0.435 | 0.416 | 0.378 | 0.302 | 0.282 | 0.268 | 0.293 | 0.297
17 | NCI-H2347 | 0.282 | 0.376 | 0.246 | 0.287 | 0.28 | 0.699 | 0.925 | 0.69 | 0.466 | 0.478 | 0.448 | 0.413 | 0.505 | 0.4 | 0.388 | 0.658 | 0.954 | 0.904 | 0.867 | 0.565
18 | NCI-H2405 | 0.735 | 0.589 | 0.66 | 0.582 | 0.653 | 0.821 | 0.779 | 0.534 | 0.601 | 0.705 | 0.524 | 0.531 | 0.535 | 0.514 | 0.48 | 1.13 | 1.05 | 1.14 | 1.04 | 1.07
19 | NCI-H3122 | 0.255 | 0.236 | 0.252 | 0.218 | 0.202 | 0.949 | 1.01 | 1.01 | 0.785 | 0.998 | 0.164 | 0.192 | 0.206 | 0.222 | 0.165 | 1.01 | 1.02 | 1.02 | 0.97 | 0.847
20 | PC-3 [JPC-3] | 0.748 | 0.666 | 0.683 | 0.657 | 0.725 | 0.916 | 0.889 | 0.806 | 0.707 | 0.569 | 0.483 | 0.54 | 0.536 | 0.578 | 0.503 | 0.423 | 0.502 | 0.501 | 0.471 | 0.451
21 | PC-14 | 0.681 | 0.651 | 0.805 | 0.198 | 0.123 | 0.313 | 0.446 | 0.334 | 0.265 | 0.301 | 0.578 | 0.501 | 0.471 | 0.185 | 0.118 | 0.194 | 0.271 | 0.38 | 0.291 | 0.223
22 | RERF-LC-KJ | 0.842 | 0.856 | 0.909 | 0.736 | 0.639 | 1.05 | 0.947 | 0.924 | 1.06 | 0.783 | 0.877 | 1.08 | 1.14 | 0.976 | 0.773 | 0.739 | 0.835 | 0.842 | 0.892 | 0.692
